In experiment [1] the target is T1, ALX/FPR2 (Homo sapiens, UniProt P25090).
T1 sequence (P25090 1-351): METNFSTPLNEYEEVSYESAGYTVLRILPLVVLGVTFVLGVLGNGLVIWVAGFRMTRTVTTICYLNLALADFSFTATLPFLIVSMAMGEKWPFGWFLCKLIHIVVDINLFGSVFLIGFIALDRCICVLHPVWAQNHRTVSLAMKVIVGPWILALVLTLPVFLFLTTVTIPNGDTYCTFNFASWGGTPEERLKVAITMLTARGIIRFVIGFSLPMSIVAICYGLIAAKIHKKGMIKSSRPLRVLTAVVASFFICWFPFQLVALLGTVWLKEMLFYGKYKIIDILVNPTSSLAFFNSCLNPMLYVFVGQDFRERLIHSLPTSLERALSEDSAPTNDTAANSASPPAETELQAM
The experiment can be described thus: intracellular Ca2+ flux (Fluo-4) in stably double transfected FPR2+/Gαq+ HEK-293 cells; wild-type HEK-293 cells as negative control; partial agonist. Type of experiment: cell-based.

Experiment [2] has as its target T1, ALX/FPR2. Nature of the experiment: intracellular Ca2+ flux (Fluo-4) in stably double transfected FPR2+/Gαq+ HEK-293 cells; wild-type HEK-293 cells as negative control; full endogenous agonist. Type of experiment: cell-based. For orientation: Calcium flux is commonly read through the fluorescence of an indicator in the cells.

This is an account of results in publication PMC12510138, “Asymmetric Synthesis and Biological Evaluation of 1,3‐ and 1,4‐Disubstituted Isoquinoline‐Containing Lipoxin A4 Analogues” (Chemistry (Weinheim an Der Bergstrasse, Germany), 2025).

Consider `CCCCC[C@@H](O)c1nc(/C=C/[C@@H](O)[C@@H](O)CCCC(=O)OC)cc2ccccc12` [(1R)-8], for which the “intracellular Ca2+ flux (Fluo-4) in stably double transfected FPR2+/Gαq+ HEK-293” value in experiment [1] came out at 100 nM.

With `CCCCC[C@H](O)/C=C/C=C\C=C\C=C\[C@@H](O)[C@@H](O)CCCC(=O)O` [compound 1, LXA4], the “intracellular Ca2+ flux (Fluo-4) in stably double transfected FPR2+/Gαq+ HEK-293” value in experiment [2] was 10 nM.
